3 sequences from paper PMC5057115, “Cathelicidins in the Tasmanian devil (Sarcophilus harrisii)” (Scientific Reports, 2016) can be followed below.

The subject of one assay is S. aureus. Format: cell-based, Staphylococcus aureus. The settings on record: broth microdilution (CLSI), 64 to 0.125 μg/mL, 24 h at 35 °C; human clinical isolate. How it is done:
(§1) Tissue expression of devil cathelicidin prepropeptides was determined by real-time PCR on a range of secretory, immune, reproductive, gastrointestinal and respiratory tissues, as well as BLAST searches of the milk transcriptome. Opportunistic tissue samples for real-time PCR were collected from Taronga Zoo (Sydney) from devils which were subject to euthanasia due to old age and advanced disease. The mature peptides of all six devil cathelicidins were synthesised by ChinaPeptides Co. Ltd. and their antimicrobial activity against bacterial and fungal pathogens determined by broth microdilution susceptibility assay according to clinical laboratory standards institute guidelines. Antimicrobial activity was expressed as minimum inhibitory concentration (MIC). Cytotoxicity was assessed in the human cell line A549 and haemolytic activity determined against human blood. Statistical significance of peptide effect on cell survival in comparison to the untreated control was calculated using a one sample t-test. Pouch microbiome analysis was performed on swabs from the pouch of lactating and non-lactating devils to detect changes in microbe populations. Pouch swab collection was carried out in accordance with the Save the Tasmanian Devil Program and was approved by the Animal Ethics Committee of the University of Sydney (permit number 681). […]
(§2) base (YNB) for fungi, from a concentration of 64μg/mL to 0.125μg/mL in a final volume of 100 μL .
Two antibiotics, ampicillin and tetracycline, were included as a positive control for bacteria, and the antifungal drug fluconazole for fungi. A well containing cells and media only was used as a “no drug” control to ensure that cultures grew normally. […] Colonies were resuspended in saline and the OD530 measured with a McFarland reader. […] Assays Antimicrobial activity was expressed as minimum inhibitory concentration (MIC), which was defined as the lowest concentration of cathelicidin preventing visible growth, relative to the negative control. […]
(§3) DMEM and positive control of dimethylsulfoxide (DMSO) (1%) were also included. Following incubation for a further 24 hours, cell viability was determined using alamar blue (Invitrogen) which was added to each well. The plates were incubated for 24 hours, then the absorption measured at 570nm and 620nm using the Victor 3 multilabel plate reader (PerkinElmer). […] To x i city of cathelicidins was calculated according to Invitrogen recommendations and expressed as percentage cell survival compared to the untreated growth control. […]
(§4) Haemolytic activity was assessed using 10mL of human blood collected into potassium -ED T A […]

In the next assay the test system is S. pneumoniae ATCC 49619. As to the kind of experiment: microbe, parasite or virus in culture. Format: cell-based. To be noted: ATCC 49619, 24 h. The procedure: as §1, §2
(§5) Two antibiotics, ampicillin and tetracycline, were included as a positive control for bacteria, and the antifungal drug fluconazole for fungi. A well containing cells and media only was used as a “no drug” control to ensure that cultures grew normally. Bacteria were subcultured on Mueller Hinton agar (MHA) or Sheep blood agar (BA) for 24 hours at 35 °C for Staphylococcus spp., Pseudomonas spp., Enterococcus spp. and E.coli, with 5% CO2 for Streptococcus spp., K.pneumoniae, P.multocida, L.monocytogenes and N.asteroides. Similarly, fungi were subcultured on Sabouraud agar (SAB) at 35 °C for 24 hours prior to the test. Colonies were resuspended in saline and the OD530 measured with a McFarland reader. If necessary the suspension was diluted to 0.45-0.55 McFarland units with saline. Following a 1:150 dilution for bacteria and twostep dilution for fungi (1:50, 1:20), 100 μL of microorganisms (1x106 – 5 x10^5 cells/mL) were pipetted into wells 2-12, the first well acting as a negative control. Colony counts were performed using a 1:1000 dilution for bacteria and 1:10 for fungi spread onto MHA/BA or SAB plates respectively. The 96 well microdilution and agar plates were incubated for 24 hours at 35 °C (Escherichia coli, Staphylococcus spp., Enterococcus spp. and Pseudomonas spp.), with 5% CO2 (Streptococcus spp. Pasteurella multocida, Klebsiella pneumoniae, Listeria monocytogenes a nd Nocardia asteroids) for bacteria, and 35 °C for 48 hours (Candida spp .) or 72 hours (Cryptococcus spp.) for fungi. Assays Antimicrobial activity was expressed as minimum inhibitory concentration (MIC), which was defined as the lowest concentration of cathelicidin preventing visible growth, relative to the negative control. […]
(§6) DMEM and positive control of dimethylsulfoxide (DMSO) (1%) were also included. […]
(§7) 570nm and 620nm using the Victor 3 multilabel plate reader (PerkinElmer). The assay was performed on two separate occasions. To x i city of cathelicidins was calculated according to Invitrogen recommendations and expressed as percentage cell survival compared to the untreated growth control. A significant difference between cathelicidin treated and control cell survival was tested using a o ne sample t-test (p<0.05).
(§8) Haemolytic activity was assessed using 10mL of human blood collected into potassium -ED T A vacutainers (BD). The blood was washed three times with 30mL of calcium and magnesium -free Dulbecco’s phosphate buffered saline (DPBS) and cells were collected by centrifugation at 2000 x g […]
(§9) for 10 minutes. […]

In assay [1] the test system is C. parapsilosis ATCC 22019. As to the kind of experiment: microbe, parasite or virus in culture. It is filed as cell-based. To be noted: broth microdilution (CLSI), YNB, 64 to 0.125 μg/mL, 48 hours at 35 °C; ATCC strain. How it is done: as §1, §2, §5, §6, §7, §8, §9
(Dilution methods test growth across graded concentrations, often in twofold steps.)

Another assay relates to S. aureus ATCC 29213. As to the kind of experiment: microbe, parasite or virus in culture. Format: cell-based, Staphylococcus aureus. To be noted: ATCC 29213, 24 h. How it is done:
as §1, §2
(§10) Two antibiotics, ampicillin and tetracycline, were included as a positive control for bacteria, and the antifungal drug fluconazole for fungi. A well containing cells and media only was used as a “no drug” control to ensure that cultures grew normally. Bacteria were subcultured on Mueller Hinton agar (MHA) or Sheep blood agar (BA) for 24 hours at 35 °C for Staphylococcus spp., Pseudomonas spp., Enterococcus spp. and E.coli, with 5% CO2 for Streptococcus spp., K.pneumoniae, P.multocida, L.monocytogenes and N.asteroides. Similarly, fungi were subcultured on Sabouraud agar (SAB) at 35 °C for 24 hours prior to the test. Colonies were resuspended in saline and the OD530 measured with a McFarland reader. If necessary the suspension was diluted to 0.45-0.55 McFarland units with saline. […] Assays Antimicrobial activity was expressed as minimum inhibitory concentration (MIC), which was defined as the lowest concentration of cathelicidin preventing visible growth, relative to the negative control. […]
(§11) 570nm and 620nm using the Victor 3 multilabel plate reader (PerkinElmer). […] To x i city of cathelicidins was calculated according to Invitrogen recommendations and expressed as percentage cell survival compared to the untreated growth control. […]
(§12) Haemolytic activity was assessed using 10mL of human blood collected into potassium -ED T A vacutainers (BD). […]

The next assay has as its system C. neoformans. It is filed as cell-based, Cryptococcus neoformans. The settings on record: broth microdilution (CLSI), YNB, 64 to 0.125 μg/mL, 72 hours at 35 °C; human clinical isolate. How it is done:
as §1, with “t-test.” for “t-test. Pouch microbiome analysis was performed on swabs from the pouch of lactating and non-lactating devils to detect changes in microbe populations. Pouch swab collection was carried out in accordance with the Save the Tasmanian Devil Program and was approved by the Animal Ethics Committee of the University of Sydney (permit number 681).”
(§13) Two antibiotics, ampicillin and tetracycline, were included as a positive control for bacteria, and the antifungal drug fluconazole for fungi. […] Colonies were resuspended in saline and the OD530 measured with a McFarland reader. […] Assays Antimicrobial activity was expressed as minimum inhibitory concentration (MIC), which was defined as the lowest concentration of cathelicidin preventing visible growth, relative to the negative control. […]
as §3, §4

For a further assay, the system named is C. krusei ATCC 6258. Format: cell-based, Candida krusei. To be noted: broth microdilution (CLSI), YNB, 64 to 0.125 μg/mL, 48 hours at 35 °C; ATCC strain. The procedure:
as §1, with “t-test.” for “t-test. Pouch microbiome analysis was performed on swabs from the pouch of lactating and non-lactating devils to detect changes in microbe populations. Pouch swab collection was carried out in accordance with the Save the Tasmanian Devil Program and was approved by the Animal Ethics Committee of the University of Sydney (permit number 681).”
as §13, §3, §4

For a further assay, the system named is S. agalactiae. Format: cell-based. To be noted: broth microdilution (CLSI), 64 to 0.125 μg/mL, 24 h at 35 °C with 5% CO2; human clinical isolate. The procedure:
as §1, §2, §5
(§14) DMEM and positive control of dimethylsulfoxide (DMSO) (1%) were also included. Following incubation for a further 24 hours, cell viability was determined using alamar blue (Invitrogen) which was added to each well. The plates were incubated for 24 hours, then the absorption measured at 570nm and 620nm using the Victor 3 multilabel plate reader (PerkinElmer). The assay was performed on two separate occasions. To x i city of cathelicidins was calculated according to Invitrogen recommendations and expressed as percentage cell survival compared to the untreated growth control. A significant difference between cathelicidin treated and control cell survival was tested using a o ne sample t-test (p<0.05).
as §4
(§15) vacutainers (BD). […]

The next assay relates to S. agalactiae ATCC 12386. It is filed as cell-based. To be noted: broth microdilution (CLSI), 64 to 0.125 μg/mL, 24 h at 35 °C with 5% CO2; ATCC strain. The procedure:
as §1, §2, §5, §14, §4, §15

In another assay the test system is S. equi*. It is filed as cell-based. The settings on record: broth microdilution (CLSI), 64 to 0.125 μg/mL, 24 h at 35 °C with 5% CO2; animal isolate. The procedure:
as §1, §2, §5, §14, §4, §15

A further assay deals with C. glabrata. Format: cell-based. The settings on record: broth microdilution (CLSI), YNB, 64 to 0.125 μg/mL, 48 hours at 35 °C; human clinical isolate. The procedure: as §1, §2, §5, §14, §4, §15
Assay [2] concerns S. dysgalactiae subs. equisimilis. Format: cell-based. To be noted: broth microdilution (CLSI), 64 to 0.125 μg/mL, 24 h at 35 °C with 5% CO2; human clinical isolate. How it is done: as §1, §2, §5, §14, §4, §15
In the next assay the test system is S. anginosus. It is filed as cell-based. To be noted: broth microdilution (CLSI), 64 to 0.125 μg/mL, 24 h at 35 °C with 5% CO2; human clinical isolate. The procedure: as §1, §2, §5, §14, §4, §15
A further assay concerns N. asteroides*. Format: cell-based. To be noted: broth microdilution (CLSI), 64 to 0.125 μg/mL, 24 h at 35 °C with 5% CO2; animal isolate. The procedure: as §1, §2, §5, §14, §4, §15
For another assay, the system named is C. gattii. Format: cell-based, Cryptococcus gattii. To be noted: broth microdilution (CLSI), YNB, 64 to 0.125 μg/mL, 72 hours at 35 °C; human clinical isolate. How it is done: as §1, with “t-test.” for “t-test. Pouch microbiome analysis was performed on swabs from the pouch of lactating and non-lactating devils to detect changes in microbe populations. Pouch swab collection was carried out in accordance with the Save the Tasmanian Devil Program and was approved by the Animal Ethics Committee of the University of Sydney (permit number 681).”
as §13, §3, §4

A further assay deals with L. monocytogenes*. Format: cell-based, Listeria monocytogenes. The settings on record: broth microdilution (CLSI), 64 to 0.125 μg/mL, 24 h at 35 °C with 5% CO2; animal isolate. The procedure:
as §1, with “populations.” for “populations. Pouch swab collection was carried out in accordance with the Save the Tasmanian Devil Program and was approved by the Animal Ethics Committee of the University of Sydney (permit number 681).”
as §13, §11, §12

A further assay deals with E. faecalis ATCC 29212. As to the kind of experiment: microbe, parasite or virus in culture. It is filed as cell-based, Enterococcus faecalis. The settings on record: ATCC 29212, 24 h. How it is done: as §1, §2, §10, §11, §12

Where no end group is shown, it is not given here. A value given as a limit tells only on which side of the number the result lay.

Turning to “KRIRFFERIRDRLRDLGNRIKNRIRDFFS [Saha-CATH6]”, the MIC was greater than 64 µg/mL against S. aureus; 64 µg/mL against S. pneumoniae ATCC 49619; greater than 64 µg/mL in assay [1]; greater than 64 µg/mL in the assay on S. aureus ATCC 29213; 64 µg/mL with C. neoformans; 64 µg/mL in the assay on C. krusei ATCC 6258. Further, the MIC against S. agalactiae was greater than 64 µg/mL; against S. agalactiae ATCC 12386, 64 µg/mL; against S. equi*, greater than 64 µg/mL; against C. glabrata it was greater than 64 µg/mL; in assay [2], greater than 64 µg/mL; with S. anginosus, 64 µg/mL. In addition, the MIC in the assay on N. asteroides* is greater than 64 µg/mL; with C. gattii, 64 µg/mL; against L. monocytogenes*, greater than 64 µg/mL; in the assay on E. faecalis ATCC 29212, greater than 64 µg/mL.

Regarding “KRMGIFHLFWAGLRKLGNLIKNKIQQGIENFLG [Saha-CATH3]”, the MIC is greater than 64 µg/mL against S. aureus; greater than 64 µg/mL in the assay on S. pneumoniae ATCC 49619; greater than 64 µg/mL in assay [1]; greater than 64 µg/mL in the assay with S. aureus ATCC 29213; 16 µg/mL with C. neoformans; greater than 64 µg/mL against C. krusei ATCC 6258. Also, the MIC (against S. agalactiae; with S. agalactiae ATCC 12386; with S. equi*; with C. glabrata; in [2]; with S. anginosus) was greater than 64 µg/mL in each case. Further, the MIC against N. asteroides*, in the assay with C. gattii, with L. monocytogenes* and in the assay on E. faecalis ATCC 29212 was greater than 64 µg/mL in each case.

Regarding KRIGLIRLIGKILRGLRRLG [Saha-CATH5], the MIC in the assay with S. aureus was 64 µg/mL; in the assay on S. pneumoniae ATCC 49619, 64 µg/mL; in assay [1], greater than 64 µg/mL; with S. aureus ATCC 29213, 64 µg/mL; against C. neoformans, 32 µg/mL; with C. krusei ATCC 6258 it was 64 µg/mL. The MIC against S. agalactiae was 64 µg/mL; in the assay with S. agalactiae ATCC 12386, 64 µg/mL; in the assay on S. equi* it was 64 µg/mL; with C. glabrata, greater than 64 µg/mL; in assay [2] it was greater than 64 µg/mL; in the assay with S. anginosus, 32 µg/mL. Also, the MIC against N. asteroides* was greater than 64 µg/mL; against C. gattii it was 64 µg/mL; in the assay on L. monocytogenes* it was greater than 64 µg/mL; with E. faecalis ATCC 29212, greater than 64 µg/mL.
